Holding throughout (type): cell-based
Assay [1] deals with T1, human TLR7 (Homo sapiens, UniProt Q9NYK1).
T1 construct: host or cells: HEK-Blue cells (HEK293-derived reporter line)
T1 sequence (Q9NYK1 27-1049): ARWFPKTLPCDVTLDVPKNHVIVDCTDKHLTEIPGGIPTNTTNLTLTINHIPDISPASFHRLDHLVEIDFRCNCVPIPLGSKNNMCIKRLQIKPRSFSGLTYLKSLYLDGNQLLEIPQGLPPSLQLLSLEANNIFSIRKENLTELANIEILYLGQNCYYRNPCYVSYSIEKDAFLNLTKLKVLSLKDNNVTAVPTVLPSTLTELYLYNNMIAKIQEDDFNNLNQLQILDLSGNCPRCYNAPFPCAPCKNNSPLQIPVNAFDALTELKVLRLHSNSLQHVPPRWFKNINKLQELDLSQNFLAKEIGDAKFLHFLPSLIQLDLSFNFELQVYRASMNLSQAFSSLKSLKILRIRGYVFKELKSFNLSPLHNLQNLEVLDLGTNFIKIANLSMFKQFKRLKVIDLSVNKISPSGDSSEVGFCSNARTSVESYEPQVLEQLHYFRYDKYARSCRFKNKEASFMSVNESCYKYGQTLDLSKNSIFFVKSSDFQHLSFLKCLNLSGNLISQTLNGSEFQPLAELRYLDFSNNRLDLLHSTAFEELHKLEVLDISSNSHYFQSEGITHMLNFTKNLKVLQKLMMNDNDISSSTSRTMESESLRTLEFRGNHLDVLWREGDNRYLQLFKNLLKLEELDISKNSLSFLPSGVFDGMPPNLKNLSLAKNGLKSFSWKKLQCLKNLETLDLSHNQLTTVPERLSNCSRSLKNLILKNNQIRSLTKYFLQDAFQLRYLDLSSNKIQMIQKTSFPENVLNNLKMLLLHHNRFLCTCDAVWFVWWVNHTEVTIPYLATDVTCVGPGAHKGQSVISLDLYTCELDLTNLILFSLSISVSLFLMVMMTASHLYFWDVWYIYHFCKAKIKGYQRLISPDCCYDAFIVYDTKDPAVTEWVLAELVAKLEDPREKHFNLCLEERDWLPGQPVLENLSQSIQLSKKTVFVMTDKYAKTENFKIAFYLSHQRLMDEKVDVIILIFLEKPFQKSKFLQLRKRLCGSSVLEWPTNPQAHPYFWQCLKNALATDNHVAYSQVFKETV
The assay can be described thus: TLR7 inhibition reporter assay (HEK-Blue cells, SEAP reporter, gardiquimod stimulation). As to conditions: HEK-Blue cells overexpressing human TLR7, SEAP reporter, gardiquimod 7.5 μM. The procedure, abridged:
(§1)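 Agonists (final): TLR7 gardiquimod 7.5 μM; TLR8 R848 15.9 μM; TLR9 ODN2006 5 nM. HEK-Blue reporter cells, 30 min RT compound pre-incubation, 0.05 nM–50 μM dose range, 22 h at 37 °C, colorimetric SEAP detection medium. % inhibition relative to agonist+DMSO and known-inhibitor wells.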

The target in assay [2] is T2, human TLR8 (Homo sapiens, UniProt Q9NR97).
T2 construct: host or cells: HEK-Blue cells (HEK293-derived reporter line)
T2 sequence (Q9NR97 27-1041): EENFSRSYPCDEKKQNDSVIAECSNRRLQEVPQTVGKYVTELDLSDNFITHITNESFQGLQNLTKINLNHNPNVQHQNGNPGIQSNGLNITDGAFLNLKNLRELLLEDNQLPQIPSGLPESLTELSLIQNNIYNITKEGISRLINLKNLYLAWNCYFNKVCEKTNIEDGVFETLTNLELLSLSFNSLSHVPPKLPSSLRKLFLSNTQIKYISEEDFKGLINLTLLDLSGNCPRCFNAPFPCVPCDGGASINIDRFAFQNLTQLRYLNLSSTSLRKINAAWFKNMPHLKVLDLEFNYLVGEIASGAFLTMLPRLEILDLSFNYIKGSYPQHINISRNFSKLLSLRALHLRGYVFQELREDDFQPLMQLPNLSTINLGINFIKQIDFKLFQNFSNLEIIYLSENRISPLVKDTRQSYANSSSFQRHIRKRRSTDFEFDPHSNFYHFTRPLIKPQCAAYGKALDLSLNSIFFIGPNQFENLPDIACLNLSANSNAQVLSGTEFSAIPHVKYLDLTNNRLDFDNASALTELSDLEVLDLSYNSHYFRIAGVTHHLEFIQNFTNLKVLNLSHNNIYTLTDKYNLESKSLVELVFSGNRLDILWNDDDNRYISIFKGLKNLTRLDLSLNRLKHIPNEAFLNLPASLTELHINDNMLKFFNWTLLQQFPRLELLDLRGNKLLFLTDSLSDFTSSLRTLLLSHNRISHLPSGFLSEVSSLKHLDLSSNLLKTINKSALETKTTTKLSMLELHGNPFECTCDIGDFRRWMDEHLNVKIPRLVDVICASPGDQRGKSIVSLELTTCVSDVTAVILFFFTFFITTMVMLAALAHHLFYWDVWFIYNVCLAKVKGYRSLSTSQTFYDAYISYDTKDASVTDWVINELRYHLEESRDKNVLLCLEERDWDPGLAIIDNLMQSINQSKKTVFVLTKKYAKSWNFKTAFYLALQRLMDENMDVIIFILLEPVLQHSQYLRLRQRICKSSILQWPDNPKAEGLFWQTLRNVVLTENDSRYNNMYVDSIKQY
As to the kind of experiment: TLR8 inhibition reporter assay (HEK-Blue cells, SEAP reporter, R848 stimulation). As to conditions: HEK-Blue cells overexpressing human TLR8, SEAP reporter, R848 15.9 μM. The procedure, abridged: as §1
In general terms: In a reporter assay the amount or activity of a reporter protein is the signal.

Assay [3] deals with T3, human TLR9 (Homo sapiens, UniProt Q9NR96).
T3 construct: host or cells: HEK-Blue cells (HEK293-derived reporter line)
T3 sequence (Q9NR96 26-1032): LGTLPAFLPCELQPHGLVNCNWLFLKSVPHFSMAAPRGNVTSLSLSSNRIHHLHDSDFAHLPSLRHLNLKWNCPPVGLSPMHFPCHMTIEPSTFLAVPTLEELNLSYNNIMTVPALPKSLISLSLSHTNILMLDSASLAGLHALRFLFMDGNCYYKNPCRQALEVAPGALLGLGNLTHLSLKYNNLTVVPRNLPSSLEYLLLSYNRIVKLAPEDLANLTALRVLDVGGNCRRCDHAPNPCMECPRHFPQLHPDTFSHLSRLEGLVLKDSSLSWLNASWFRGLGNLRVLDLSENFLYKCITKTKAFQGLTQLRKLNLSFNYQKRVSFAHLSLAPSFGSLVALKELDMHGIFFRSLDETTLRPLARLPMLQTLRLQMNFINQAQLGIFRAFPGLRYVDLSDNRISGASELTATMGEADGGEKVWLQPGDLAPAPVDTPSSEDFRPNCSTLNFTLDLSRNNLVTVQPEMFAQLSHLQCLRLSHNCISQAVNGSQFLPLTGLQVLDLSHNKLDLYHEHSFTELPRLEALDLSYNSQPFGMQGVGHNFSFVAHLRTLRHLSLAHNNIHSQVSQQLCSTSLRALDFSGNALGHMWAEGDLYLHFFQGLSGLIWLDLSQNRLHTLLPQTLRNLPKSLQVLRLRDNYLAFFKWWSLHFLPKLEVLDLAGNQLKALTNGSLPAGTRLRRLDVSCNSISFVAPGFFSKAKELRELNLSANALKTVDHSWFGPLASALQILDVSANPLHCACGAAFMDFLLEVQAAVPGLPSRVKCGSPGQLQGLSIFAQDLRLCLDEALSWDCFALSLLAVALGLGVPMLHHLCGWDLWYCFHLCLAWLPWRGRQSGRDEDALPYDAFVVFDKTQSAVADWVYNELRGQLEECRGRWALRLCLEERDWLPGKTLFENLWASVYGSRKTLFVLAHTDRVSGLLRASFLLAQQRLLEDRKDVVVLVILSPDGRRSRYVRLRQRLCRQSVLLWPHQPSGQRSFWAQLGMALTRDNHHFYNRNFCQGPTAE
As to the kind of experiment: TLR9 inhibition reporter assay (HEK-Blue cells, SEAP reporter, ODN2006 stimulation). As to conditions: HEK-Blue cells overexpressing human TLR9, SEAP reporter, ODN2006 5 nM. The procedure, abridged: as §1

Structures are written as SMILES.

Broadly, the IC50 is the concentration needed to halve the response being measured. Lower therefore signals higher potency.

As to `Cc1cc2cc(-c3[nH]c4ccc(C5CCNCC5)cc4c3C(C)C)cc(C)n2n1` [Example 142, 5-(3-isopropyl-5-(piperidin-4-yl)-1H-indol-2-yl)-2,7-dimethylpyrazolo[1,5-a]pyridine], the results for the IC50 in assay [1], in assay [2] and in assay [3] were below 100 nM, below 100 nM and 1000 to 50000 nM, respectively.

For `CCc1c(-c2n[nH]c3ncccc23)[nH]c2ccc(C3CCNCC3)cc12` [Example 244, 3-(3-ethyl-5-(piperidin-4-yl)-1H-indol-2-yl)-1H-pyrazolo[3,4-b]pyridine], the IC50 in assay [1] fell in the range of 100 to 1000 nM; in assay [2], 100 to 1000 nM; in assay [3], 1000 to 50000 nM.

Turning to `Cc1cc(-c2[nH]c3ccc(C4CCN(C(=O)CCN5CCC(F)CC5)CC4)cc3c2C(C)C)cn2nnnc12` [Example 633, 3-(4-fluoropiperidin-1-yl)-1-(4-(3-isopropyl-2-(8-methyltetrazolo[1,5-a]pyridin-6-yl)-1H-ndol-5-yl)piperidin-1-yl)propan-1-one], the values for the IC50 in assay [1], in assay [2] and in assay [3] were below 100 nM, below 100 nM and 1000 to 50000 nM, respectively.

For `C[C@@H](O)CC(=O)N1CCC(c2ccc3[nH]c(-c4cc(F)c5nccn5c4)c(CC(F)F)c3c2)CC1` [Example 603, (R)-1-(4-(3-(2,2-difluoroethyl)-2-(8-fluoroimidazo[1,2-a]pyridin-6-yl)-1H-indol-5-yl)piperidin-1-yl)-3-hydroxybutan-1-one], the values for the IC50 in assay [1], in assay [2] and in assay [3] were 100 to 1000 nM, above 3130 nM and above 50000 nM, respectively.

`CC(C)c1c(-c2ccnc3[nH]ncc23)[nH]c2ccc(C3CCN(C(=O)CCN4CCCCC4)CC3)cc12` [Example 641, 1-(4-(3-isopropyl-2-(1H-pyrazolo[3,4-b]pyridin-4-yl)-1H-indol-5-yl)piperidin-1-yl)-3-(piperidin-1-yl)propan-1-one]: the values for the IC50 in assay [1], in assay [2] and in assay [3] were below 100 nM, below 100 nM and 1000 to 50000 nM, respectively.

As for `CC(C)c1c(-c2cn(C)c3c(=O)n(C)ccc23)[nH]c2ccc(C3CCN(CC(=O)N(C)C)CC3)cc12` [Example 297, 2-(4-(2-(1,6-dimethyl-7-oxo-6,7-dihydro-1H-pyrrolo[2,3-c]pyridin-3-yl)-3-isopropyl-1H-indol-5-yl)piperidin-1-yl)-N,N-dimethylacetamide], the IC50 in assay [1] was below 100 nM; in assay [2], below 100 nM; in assay [3] it was 1000 to 50000 nM.

For `CC(C)c1c(-c2ccnc3[nH]ncc23)[nH]c2ccc(C3CCN(C4CCOCC4)CC3)cc12` [Example 682, 4-(3-isopropyl-5-(1-(tetrahydro-2H-pyran-4-yl)piperidin-4-yl)-1H-indol-2-yl)-1H-pyrazolo[3,4-b]pyridine], the figures for the IC50 in assay [1], in assay [2] and in assay [3] were below 100 nM, below 100 nM and 1000 to 50000 nM, respectively.

With `Cc1nc2c(-c3[nH]c4ccc(C5CCNCC5)cc4c3C(C)C)ccc(C)n2n1` [Example 151, 8-(3-isopropyl-5-(piperidin-4-yl)-1H-indol-2-yl)-2,5-dimethyl-[1,2,4]triazolo[1,5-a]pyridine], the IC50 in assay [1], in assay [2] and in assay [3] was 100 to 1000 nM each time.

Regarding `CC(C)c1c(-c2cnc3cn[nH]c3c2)[nH]c2ccc(C3CCNCC3)cc12` [Example 63, 6-(3-isopropyl-5-(piperidin-4-yl)-1H-indol-2-yl)-1H-pyrazolo[4,3-b]pyridine], the results for the IC50 in assay [1], in assay [2] and in assay [3] were below 100 nM, below 100 nM and 100 to 1000 nM, respectively.

Take `CC(C)c1c(-c2ccc3ncsc3n2)[nH]c2ccc(C3CCNCC3)cc12` [Example 209, 5-(3-isopropyl-5-(piperidin-4-yl)-1H-indol-2-yl) thiazolo[5,4-b]pyridine]: the 50% inhibitory concentration (IC50) in assay [1] is below 100 nM; in assay [2], below 100 nM; in assay [3], 1000 to 50000 nM.

With `CCc1c(-c2ccnc3[nH]ncc23)[nH]c2ccc(C3CCN(Cc4cc(-c5ccccc5)on4)CC3)cc12` [Example 897, 3-((4-(3-ethyl-2-(1H-pyrazolo[3,4-b]pyridin-4-yl)-1H-indol-5-yl)piperidin-1-yl)methyl)-5-phenylisoxazole], the IC50 in assay [1] lay within 1000 to 50000 nM; in assay [2], 100 to 1000 nM; in assay [3] it was 1000 to 50000 nM.

Consider `Cc1nc[nH]c1CN1CCC(c2ccc3[nH]c(-c4ccnc5[nH]ncc45)c(C(C)C)c3c2)CC1` [Example 864, 4-(3-isopropyl-5-(1-((4-methyl-1H-imidazol-5-yl)methyl)piperidin-4-yl)-1H-indol-2-yl)-1H-pyrazolo[3,4-b]pyridine], for which the IC50 was below 100 nM in assay [1], below 100 nM in assay [2] and 100 to 1000 nM in assay [3].

`CC(C)c1c(-c2cnc3ccnn3c2)[nH]c2ccc(C3CCNCC3)cc12` [Example 181, 6-(3-isopropyl-5-(piperidin-4-yl)-1H-indol-2-yl)pyrazolo[1,5-a]pyrimidine]: the IC50 is 1000 to 50000 nM in assay [1], above 3130 nM in assay [2] and 1000 to 50000 nM in assay [3].

The values are drawn from patent US11739098B2 (BRISTOL-MYERS SQUIBB COMPANY, priority 2017, dated 2023).
